Test results as given in patent US20220265626A1, “THE SERPINB3 INHIBITOR PIPERIDINPROPIONIC ACID FOR TUMOR TREATMENT” (UNIVERSITA' DEGLI STUDI DI PADOVA, priority 2019, published 2022).

Assays:
[1] = test system: HepG2/SB3 and HepG2/CTR cells; experiment: Cell viability by MTT assay with antitumor drugs in the absence or presence of PPA; assay type: cell-based; settings: for Resistance/sensitivity to drug-induced cell death, HepG2/SB3 compared with HepG2/CTR: drug 10 μM, without PPA
Description: The SeprinB3 molecule is known to induce resistance to chemotherapy treatment. In order to evaluate whether the inhibition of said molecule is able to increase the therapeutic efficacy of antitumor drugs, HepG2 cells stably transfected to overexpress SerpinB3 (HepG2/SB3) and HepG2 cells transfected with only the empty plasmid (HepG2/CTR) have been incubated with several antitumor drugs at a concentration of 10 μM (Cisplatin, Sorafenib, 5-Fluorouracil, Methotrexate) in the absence or presence of PPA. […] The results are expressed as a percentage of viability compared to cells incubated with only medium (CTR).

MDR1 and MDR2 genes = experiment: Multidrug resistance gene expression by real time PCR; assay type: cell-based; settings: HepG2/SB3 cells, PPA 10 and 100 ng/ml, 24 hours
Description: In order to understand more fully whether the resistance to chemotherapeutic drugs induced by SerpinB3 is exclusively linked to the increased resistance to cell death following the reduced activation of the mitochondrial proapoptotic cascade, the genes involved in multiple resistance to chemotherapeutic drugs have been analysed (multidrug resistance, MDR). In particular, HepG2/SB3 and HepG2 control cells (HepG2/empty) were collected after 24 hours of treatment with PPA at the doses of 10 ng/ml and 100 ng/ml and the gene expression was analysed as follows: MDR 1, MDR 2, MRP1, MRP2, MRP3, GSTP1 by real time PCR according to standard protocols.

[2] = test system: HepG2 liver tumor derived cells (HB8065); experiment: Real-time cell proliferation / cellular toxicity (xCELLigence, Normalized Cell Index); assay type: cell-based; settings: monitored for over 60 hours
Description: HepG2 liver tumor derived cells (HB8065), incubated with increasing concentrations of 1′-Piperidin propionic acid (PPA) in a range of 5 -50 μg/ml were used and real-time cell proliferation was analysed, using xCELLigence instrument (ACEA Biosciences, Inc., San Diego, Calif., USA), according to the supplier's instructions. In each well of an E-16 plate, 4×10^4 HepG2 cells (HB8065) were seeded in quadruplicate, cultured in complete MEM medium (Sigma-Aldrich, Milan, Italy) supplemented with 10% fetal calf serum (Sigma-Aldrich, Milan, Italy), 100 U/mL of penicillin, 100 μg/ml of streptomycin, and 20 mM L-glutamine (Sigma-Aldrich, Milan, Italy) and 1% of MEM Non Essential Amino Acids. The cells were kept in an incubator at 37° C. with 95% humidity and 5% CO2 saturation. The complete medium was used as a control. The RTCA system monitored the electrical impedance, which is directly proportional to the number of cells present per well, indicated as Cell Index every 5 min for over 60 hours. The cell proliferation curves were analysed with the RTCA software and expressed as the Normalized Cell Index at the time of the treatment with PPA, an arbitrary unit corresponding to the number of cells present per well.
It should be noted that said concentration (5 μg/ml) is markedly higher than the biologically active PPA concentrations, whose normal range of use was 10-100 ng/ml.

[3] = test system: THP-1 cells of monocytic origin; experiment: Real-time proliferation of THP-1 cells stimulated with exogenous SerpinB3 (xCELLigence); assay type: cell-based; settings: THP-1 cells with exogenous SerpinB3 20 ng/ml, PPA 1 ng/ml, 10 ng/ml, 10 μg/ml, up to 120 hours
Description: To evaluate cell proliferation in real time, the xCELLigence instrument (ACEA Biosciences, Inc., San Diego, Calif., USA) was used, as described in Example 1. THP-1 cells of monocytic origin were used, whose incubation with exogenous recombinant SerpinB3 (20 ng/ml) had induced a marked increase in the synthesis of endogenous SerpinB3, as reported in Example 2. A suspension of […] cells in quadruplicate was seeded in each well of an E-16 plate, cultured in complete RPMI medium (Sigma-Aldrich, Milan, Italy). The cells incubated with SerpinB3 alone or in the presence of PPA (1 ng/ml-10ng/ml-10 μg/ml) were monitored for up to 120 hours by the xCELLigence instrument and the cell proliferation curves shown in FIG. 3 were processed and expressed by the RTCA software as the Normalized Cell Index.

[4] = test system: tumor development in the liver; experiment: DEN plus CDAA diet mouse model of obesity-associated carcinogenesis; assay type: in vivo
From the text: To better assess the role of SerpinB3 in carcinogenesis, a mouse model of obesity-associated carcinogenesis that requires a single administration of diethyl-nitrosamine (DEN) has been developed in mice with different expression of SerpinB3. The study has been performed in mice transgenic for human SerpinB3 (SerpinB3/TG) (the initial colony was kindly provided by Prof. Cassani, Tecnogen, Caserta, Italy) and in SerpinB3 knockout mice (SerpinB3/KO) (the initial colony was kindly provided by Dr. Gary Silverman and Dr. Cliff J. Luke, University of Pittsburg, Children's Hospital, Pittsburg, Pa.). Moreover wild type mice of similar age were used as controls. All animals were bred and maintained with free access to pellet food and water at the Animal Care Facility of the Experimental Surgery Division of the University of Padua.
Mice were injected with (DEN, 25 mg/kg i.p.) at the age of 2 weeks. These mice were fed at the age of 6 weeks with a choline-deficient L-amino acid-defined (CDAA) diet and part of them were sacrificed after […], while the remaining mice were sacrificed after […]. Two groups of control mice were also treated or not with PPA (weekely intraperitoneal injection of 50 ng/g of body weight) during CDAA diet. The experimental protocol was approved by the local Ethical Committee and by the Italian Ministry of Health (Authorization N. 442/2018-PR).

CCL15 and PD-L1 = experiment: Expression of SerpinB3-induced cytokines in THP-1 cells; assay type: cell-based; settings: PPA 1 ng/ml
From the text: It has been documented that SerpinB3, in addition to inducing resistance to cell death and increased proliferation, is able to induce a reduction in tumor immunosurveillance, in particular through the increased production of cytokines such as CCL15, recently involved in the reduction of immune surveillance in hepatocellular carcinoma, and the immune checkpoint molecule PD-L1, towards which several new antitumor drugs are directed.

SerpinB3 = SerpinB3 mRNA expression by real-time PCR (induced by exogenous SerpinB3 in THP-1 and HT29; constitutive in OE33 and HepG2/SB3); assay type: cell-based
Description: PPA was added in culture at a concentration of 1-100 ng/ml alone or in combination with recombinant SerpinB3 (SB3) at a concentration of 20-200 ng/ml to the cells, while only culture medium was added to the control wells. After 24 hours of treatment, the cells were collected by scraper and the extraction of total cell RNA and reverse transcription were performed according to standard protocols. SerpinB3 mRNA levels were measured by real-time PCR (sense: 5′-[…]-3′ (SEQ ID NO:1); reverse 5′-[…]-3′ (SEQ ID NO:2)).
They were seeded in 6-well plates and kept for 24 hours before treatment, each in its own complete culture medium in (Sigma-Aldrich, Milan, Italy). PPA (1′-piperidin propionic acid) was then added at a concentration of 10-100 ng/ml in PBS.
It should be noted that concentrations of 1-10 ng/ml are already able to reduce the synthesis of SerpinB3 by about 50%.

Compound: N.N.[Cl][Pt][Cl] [Cisplatin, reference compound]
- Resistance/sensitivity to drug-induced cell death, HepG2/SB3 compared with HepG2/CTR [1]: greater resistance to cell death

Compound: CNC(=O)c1cc(Oc2ccc(NC(=O)Nc3ccc(Cl)c(C(F)(F)F)c3)cc2)ccn1 [Sorafenib, reference compound]
- Resistance/sensitivity to drug-induced cell death, HepG2/SB3 compared with HepG2/CTR [1]: greater resistance to cell death

Compound: O=C(O)CCN1CCCCC1 [PPA, 3-(1-piperidinyl)propanoic acid]
- MDR1 gene expression (MDR1 and MDR2 genes): reduction of their expression in a dose-dependent manner
- MRD2 gene expression (MDR1 and MDR2 genes): reduction of their expression in a dose-dependent manner
- Viability of cells with high levels of SerpinB3 treated with 5-Fluorouracil, on addition of PPA ([1]; HepG2/SB3, 5-Fluorouracil 10 μM): significant reduction of viability
- Viability of cells with high levels of SerpinB3 treated with Cisplatin, on addition of PPA ([1]; HepG2/SB3, Cisplatin 10 μM): significant reduction of viability
- Viability of cells with high levels of SerpinB3 treated with Methotrexate, on addition of PPA ([1]; HepG2/SB3, Methotrexate 10 μM): did not change
- Viability of cells with high levels of SerpinB3 treated with Sorafenib, on addition of PPA ([1]; HepG2/SB3, Sorafenib 10 μM): significant reduction of viability
- PPA concentration up to which no cellular toxicity is observed ([2]; PPA 5-50 μg/ml): up to 5 μg/ml
- PPA doses at which cellular toxicity is highlighted (curves below the control curve) [2]: 25 to 50 µg/mL
- Proliferative activity (Normalized Cell Index) [3]: reduction of the proliferative activity which has proved to be dose-dependent
- Tumor formation compared with mice that did not receive the compound ([4]; control (wild type) mice, DEN 25 mg/kg i.p. then CDAA diet, PPA weekly i.p. 50 ng/g body weight, preliminary results): remarkable reduction of tumor formation
- Tolerability in the experimental model ([4]; experimental model): well tolerated
- CCL15 level after stimulation with exogenous SerpinB3 (CCL15 and PD-L1): markedly reduced
- PD-L1 level after stimulation with exogenous SerpinB3 (CCL15 and PD-L1): markedly reduced
- Constitutive SerpinB3 expression (SerpinB3; OE33 and HepG2/SB3 cells, PPA 10-100 ng/ml): reduces in a dose-dependent manner
- Reduction of the synthesis of SerpinB3 (SerpinB3; PPA concentrations of 1-10 ng/ml): about 50%
- SerpinB3 expression induced by exogenous treatment (SerpinB3; THP-1 and HT29 cells, PPA 1-100 ng/ml with recombinant SerpinB3 20-200 ng/ml, 24 hours): reduces in a dose-dependent manner

Compound: O=c1[nH]cc(F)c(=O)[nH]1 [5-Fluorouracil, reference compound]
- Resistance/sensitivity to drug-induced cell death, HepG2/SB3 compared with HepG2/CTR [1]: not different

Compound: CN(Cc1cnc2nc(N)nc(N)c2n1)c1ccc(C(=O)N[C@@H](CCC(=O)O)C(=O)O)cc1 [Methotrexate, reference compound]
- Resistance/sensitivity to drug-induced cell death, HepG2/SB3 compared with HepG2/CTR [1]: not different
